This passage reports IC50 results from patent US20170313674A1, “BENZYLHYDROXIDE DERIVATIVES, PREPARATION THEREOF AND THERAPEUTIC USE THEREOF” (SANOFI, priority 2014, published 2017).

In general, IC50 refers to the concentration that inhibits the measured activity by half.

Counter-ions that a name gives are not always drawn.

One test deals with mitochondrial ATP production on non-small cell lung carcinoma cell lines NCI-H460. The test can be described thus: Mitochondrial ATP analysis (Cell Titer Glo) in NCI-H460 cells. It is filed as cell-based. As to conditions: 1-hour incubation, with sodium iodoacetate (100 μM), concentration inhibiting 50% of mitochondrial ATP production, read-out: IC50 (mito ATP). The protocol:
In order to evaluate the inhibitory activity of the all compounds, an in vitro assay was developed which read out is directly linked to mitochondrial complex 1 inhibition. Since mitochondrial complex 1 contributes to the formation of membrane potential coupled to the mitochondrial ATP synthesis, complex 1 inhibition directly leads in cells to the inhibition of mitochondrial ATP production. Cellular ATP contents were measured in presence of either glycolysis inhibitor (sodium iodocetate) and/or mitochondrial inhibitors (F0F1-ATPase inhibitor: oligomycin or mitochondrial uncoupler: FCCP) to determine the ATP production part relying either on glycolytic or on mitochondrial metabolism.
Mitochondrial ATP Analysis
The compounds of the invention were evaluated for their ability to inhibit mitochondrial
ATP was measured using the Promega Cell Titer Glo kit and protocol. In summary, 1,000 cells were plated in 40 μL in a 384 well plate. 24 hours later, medium was replaced by 20 μl culture medium in presence of compounds: cells were treated in replicates of five with control (PBS), oligomycin A (10 μg/ml), FCCP (30 μM), or the compounds of the invention in dose effect both alone or in combination with sodium iodoacetate (100 μM). Following a 1-hour incubation, 20 μL of CellTtiter-glo™ reaction mix were added to each well for a final volume of 40 μL. Plates were then analyzed for luminescence with a Perkin Elmer EnVision. By comparing the different conditions, global ATP and percentages of both glycolytic and mitochondrial ATP were determined.
The mitochondrial ATP production was calculated as the remaining ATP under iodoacetate treatment minus basal ATP (ATP content under iodoacetate and oligomycin treatment). Inhibitory activity of the compounds on mitochondrial ATP in NCI-H460 cells is expressed as the concentration needed to inhibit 50% of mitochondrial ATP production (IC50, M).
Background: ATP-based viability assays read luminescence as a measure of living cells.
Regarding `COc1ccc(C(O)COc2ccc(-c3nc(C)c(-c4ccc(OCC(O)c5ccc(OC)c(OC)c5)cc4)o3)cc2)cc1OC` (single isomer, unassigned) [Compound I-5, 1-(3,4-dimethoxyphenyl)-2-[4-[2-[4-[2-(3,4-dimethoxyphenyl)-2-hydroxy-ethoxy]phenyl]-4-methyl-oxazol-5-yl]phenoxy]ethanol], the IC50 was determined as 8270 nM.
`COc1cc(C(O)COc2ccc(-c3csc(-c4ccc(OCC(O)c5ccc(OC(F)F)c(OC)c5)cc4)n3)cc2)ccc1OC(F)F` (single isomer, unassigned) [Compound I-52, 1-[4-(difluoromethoxy)-3-methoxy-phenyl]-2-[4-[2-[4-[2-[4-(difluoromethoxy)-3-methoxy-phenyl]-2-hydroxy-ethoxy]phenyl]thiazol-4-yl]phenoxy]ethanol]: the IC50 is more than 10000 nM.
For the molecule `COc1ccc(C(O)COc2ccc(-c3cn(CCN4CCOCC4)c(-c4ccc(OCC(O)c5ccc(OC)c(OC)c5)cc4)n3)cc2)cc1OC` (stereo not drawn) [Compound I-60, 1-(3,4-dimethoxyphenyl)-2-[4-[2-[4-[2-(3,4-dimethoxyphenyl)-2-hydroxy-ethoxy]phenyl]-1-(2-morpholinoethyl)imidazo1-4-yl]phenoxy]ethanol hydrochloride], the IC50 was more than 10000 nM.
As for `COc1ccc(C(O)COc2ccc(-c3nsc(-c4ccc(OCC(O)c5ccc(OC)c(OC)c5)cc4)n3)cc2)cc1OC` (single isomer, unassigned) [Compound I-41, 1-(3,4-dimethoxyphenyl)-2-[4-[5-[4-[2-(3,4-dimethoxyphenyl)-2-hydroxy-ethoxy]phenyl]-1,2,4-thiadiazol-3-yl]phenoxy]ethanol], the IC50 amounted to 539 nM.
Regarding `COc1ccc(C(O)COc2ccc(-c3nc(-c4ccc(OC(C)(C)C(O)c5ccc(OC)c(OC)c5)cc4)cs3)cc2)cc1OC` (single isomer, unassigned) [Compound I-68, 1-(3,4-dimethoxyphenyl)-2-[4-[2-[4-[2-(3,4-dimethoxyphenyl)-2-hydroxy-ethoxy]phenyl]thiazol-4-yl]phenoxy]-2-methyl-propan-1-ol], the IC50 stood at 32.8 nM.
As for `COc1ccc(C(O)COc2ccc(-c3csc(-c4ccc(OCC(O)c5ccc(OC)c(OC(F)F)c5)cc4)n3)cc2)cc1OC(F)F` (single isomer, unassigned) [Compound I-50, 1-[3-(difluoromethoxy)-4-methoxy-phenyl]-2-[4-[2-[4-[2-[3-(difluoromethoxy)-4-methoxy-phenyl]-2-hydroxy-ethoxy]phenyl]thiazol-4-yl]phenoxy]ethanol], the IC50 was determined as 1340 nM.
For the molecule `COc1ccc(C(O)COc2ccc(-c3csc(-c4ccc(OCC(O)c5ccc(OC)c(OC(F)F)c5)cc4)n3)cc2)cc1OC(F)F` (single isomer, unassigned) [Compound I-49, 1-[3-(difluoromethoxy)-4-methoxy-phenyl]-2-[4-[2-[4-[2-[3-(difluoromethoxy)-4-methoxy-phenyl]-2-hydroxy-ethoxy]phenyl]thiazol-4-yl]phenoxy]ethanol], the IC50 was more than 10000 nM.

The test is the same for the next values; noted with them: Homo sapiens, NCI-H460, 1 h, 1-hour incubation, with sodium iodoacetate (100 μM), concentration inhibiting 50% of mitochondrial ATP production, read-out: IC50 (mito ATP).
As for `COc1ccc(C(O)C(C)(C)Oc2ccc(-c3c[nH]c(-c4ccc(OC(C)(C)C(O)c5ccc(OC)c(OC)c5)cc4)n3)cc2)cc1OC` (stereo not drawn) [Compound I-54, 1-(3,4-dimethoxyphenyl)-2-[4-[2-[4-[2-(3,4-dimethoxyphenyl)-2-hydroxy-1,1-dimethyl-ethoxy]phenyl]-1H-imidazol-4-yl]phenoxy]-2-methyl-propan-1-ol], the IC50 was determined as 672 nM.
As for `COc1ccc(C(O)COc2ccc(-c3nsc(-c4ccc(OCC(O)c5ccc(OC)c(OC)c5)cc4)n3)cc2)cc1OC` (single isomer, unassigned) [Compound I-40, 1-(3,4-dimethoxyphenyl)-2-[4-[5-[4-[2-(3,4-dimethoxyphenyl)-2-hydroxy-ethoxy]phenyl]-1,2,4-thiadiazol-3-yl]phenoxy]ethanol], the IC50 was 281 nM.
On to `COc1ccc(C(O)COc2ccc(-c3coc(-c4ccc(OCC(O)c5ccc(OC)c(F)c5)cc4)n3)cc2)cc1F` (stereo not drawn) [Compound I-17, 1-(3-fluoro-4-methoxy-phenyl)-2-[4-[2-[4-[2-(3-fluoro-4-methoxy-phenyl)-2-hydroxy-ethoxy]phenyl]oxazol-4-yl]phenoxy]ethanol], for which the IC50 turned out to be 3960 nM.
With `COc1ccc(C(O)C(C)(C)Oc2ccc(-c3cn(CCN4CCOCC4)c(-c4ccc(OC(C)(C)C(O)c5ccc(OC)c(OC)c5)cc4)n3)cc2)cc1OC` (stereo not drawn) [Compound I-59, 1-(3,4-dimethoxyphenyl)-2-[4-[2-[4-[2-(3,4-dimethoxyphenyl)-2-hydroxy-1,1-dimethyl-ethoxy]phenyl]-1-(2-morpholinoethyl)imidazo1-4-yl]phenoxy]-2-methyl-propan-1-ol], the IC50 turned out to be 2750 nM.
Turning to `COc1cc(C(O)COc2ccc(-c3coc(-c4ccc(OCC(O)c5cc(OC)c(OC)c(OC)c5)cc4)n3)cc2)cc(OC)c1OC` (stereo not drawn) [Compound I-20, 2-[4-[2-[4-[2-hydroxy-2-(3,4,5-trimethoxyphenyl)ethoxy]phenyl]oxazol-4-yl]phenoxy]-1-(3,4,5-trimethoxyphenyl)ethanol], the IC50 worked out at 1420 nM.
The same measure, in the same setting: the figure for `COc1cc(C(O)COc2ccc(-c3csc(-c4ccc(OCC(O)c5ccc(OC(F)F)c(OC)c5)cc4)n3)cc2)ccc1OC(F)F` (single isomer, unassigned) [Compound I-51, 1-[4-(difluoromethoxy)-3-methoxy-phenyl]-2-[4-[2-[4-[2-[4-(difluoromethoxy)-3-methoxy-phenyl]-2-hydroxy-ethoxy]phenyl]thiazol-4-yl]phenoxy]ethanol] is more than 10000 nM; for `COc1ccc(C(O)C(C)(C)Oc2ccc(-c3csc(-c4ccc(OC(C)(C)C(O)c5ccc(OC)c(OC)c5)cc4)n3)cc2)cc1OC` (single isomer, unassigned) [Compound I-28, 1-(3,4-dimethoxyphenyl)-2-[4-[2-[4-[2-(3,4-dimethoxyphenyl)-2-hydroxy-1,1-dimethyl-ethoxy]phenyl]thiazol-4-yl]phenoxy]-2-methyl-propan-1-ol] it is 41.8 nM.
Turning to `COc1ccc(C(O)COc2ccc(-c3nc(C)c(-c4ccc(OCC(O)c5ccc(OC)c(OC)c5)cc4)o3)cc2)cc1OC` (single isomer, unassigned) [Compound I-46, 1-(3,4-dimethoxyphenyl)-2-[4-[2-[4-[2-(3,4-dimethoxyphenyl)-2-hydroxy-ethoxy]phenyl]-4-methyl-oxazol-5-yl]phenoxy]ethanol], the IC50 was more than 10000 nM.
Turning to `COc1cc(C(O)COc2ccc(-c3coc(-c4ccc(OCC(O)c5ccc(Cl)c(OC)c5)cc4)n3)cc2)ccc1Cl` (stereo not drawn) [Compound I-15, 1-(4-chloro-3-methoxy-phenyl)-2-[4-[2-[4-[2-(4-chloro-3-methoxy-phenyl)-2-hydroxy-ethoxy]phenyl]oxazol-4-yl]phenoxy]ethanol], the IC50 stood at 1550 nM.
Turning to `COc1ccc(C(O)COc2ccc(-c3c[nH]c(-c4ccc(OCC(O)c5ccc(OC)c(OC)c5)cc4)n3)cc2)cc1OC` (stereo not drawn) [Compound I-53, 1-(3,4-dimethoxyphenyl)-2-[4-[2-[4-[2-(3,4-dimethoxyphenyl)-2-hydroxy-ethoxy]phenyl]-1H-imidazol-4-yl]phenoxy]ethanol], the IC50 is 956 nM.
Same read-out and setting: the figure for `COc1cc(C(O)COc2ccc(-c3coc(-c4ccc(OCC(O)c5ccc(F)c(OC)c5)cc4)n3)cc2)ccc1F` (stereo not drawn) [Compound I-16, 1-(4-fluoro-3-methoxy-phenyl)-2-[4-[2-[4-[2-(4-fluoro-3-methoxy-phenyl)-2-hydroxy-ethoxy]phenyl]oxazol-4-yl]phenoxy]ethanol] is 354 nM.
